Patent US20100242139A1, “XENOHORMESIS BASED COMPOSITIONS AND METHODS” (President and Fellows of Harvard College, priority 2006, published 2010)

How the values were obtained:
Assay type in all cases: biochemical
[1] = target: ALK4(h) (Homo sapiens, UniProt P36896); assay: kinase panel activity, ALK4(h); settings: compound at 20 μM; vs reference with no compound
[2] = target: Aurora-A(h) (Homo sapiens, UniProt O14965); assay: kinase panel activity, Aurora-A(h); settings: compound at 20 μM; vs reference with no compound
[3] = target: CDK1/cyclinB(h) (Homo sapiens, UniProt P06493); assay: kinase panel activity, CDK1/cyclinB(h); settings: compound at 20 μM; vs reference with no compound
[4] = target: CDK2/cyclinE(h) (Homo sapiens, UniProt P24941); assay: kinase panel activity, CDK2/cyclinE(h); settings: compound at 20 μM; vs reference with no compound
[5] = target: CDK3/cyclinE(h) (Homo sapiens, UniProt Q00526); assay: kinase panel activity, CDK3/cyclinE(h); settings: compound at 20 μM; vs reference with no compound
[6] = target: CDK5/p35(h) (Homo sapiens, UniProt Q00535); assay: kinase panel activity, CDK5/p35(h); settings: compound at 20 μM; vs reference with no compound
[7] = target: CDK6/cyclinD3(h) (Homo sapiens, UniProt Q00534); assay: kinase panel activity, CDK6/cyclinD3(h); settings: compound at 20 μM; vs reference with no compound
[8] = target: CHK2(h) (Homo sapiens, UniProt O96017); assay: kinase panel activity, CHK2(h); settings: compound at 20 μM; vs reference with no compound
[9] = target: CSK(h) (Homo sapiens, UniProt P41240); assay: kinase panel activity, CSK(h); settings: compound at 20 μM; vs reference with no compound
[10] = target: cSRC(h) (Homo sapiens, UniProt P12931); assay: kinase panel activity, cSRC(h); settings: compound at 20 μM; vs reference with no compound
[11] = target: DAPK1(h) (Homo sapiens, UniProt P53355); assay: kinase panel activity, DAPK1(h); settings: compound at 20 μM; vs reference with no compound
[12] = target: DAPK2(h) (Homo sapiens, UniProt Q9UIK4); assay: kinase panel activity, DAPK2(h); settings: compound at 20 μM; vs reference with no compound
[13] = target: EphB2(h) (Homo sapiens, UniProt P29323); assay: kinase panel activity, EphB2(h); settings: compound at 20 μM; vs reference with no compound
[14] = target: GSK3β(h) (Homo sapiens, UniProt P49841); assay: kinase panel activity, GSK3β(h); settings: compound at 20 μM; vs reference with no compound
[15] = target: IKKβ(h) (Homo sapiens, UniProt O14920); assay: kinase panel activity, IKKβ(h); settings: compound at 20 μM; vs reference with no compound
[16] = target: JNK1α1(h) (Homo sapiens, UniProt P45983); assay: kinase panel activity, JNK1α1(h); settings: compound at 20 μM; vs reference with no compound
[17] = target: JNK2α2(h) (Homo sapiens, UniProt P45984); assay: kinase panel activity, JNK2α2(h); settings: compound at 20 μM; vs reference with no compound
[18] = target: LIMK1(h) (Homo sapiens, UniProt P53667); assay: kinase panel activity, LIMK1(h); settings: compound at 20 μM; vs reference with no compound
[19] = target: MAPK1(h) (Homo sapiens, UniProt P27361); assay: kinase panel activity, MAPK1(h); settings: compound at 20 μM; vs reference with no compound
[20] = target: MAPK2(h) (Homo sapiens, UniProt P28482); assay: kinase panel activity, MAPK2(h); settings: compound at 20 μM; vs reference with no compound
[21] = target: MEK1(h) (Homo sapiens, UniProt Q02750); assay: kinase panel activity, MEK1(h); settings: compound at 20 μM; vs reference with no compound
[22] = target: Met(h) (Homo sapiens, UniProt P08581); assay: kinase panel activity, Met(h); settings: compound at 20 μM; vs reference with no compound
[23] = target: MSK1(h) (Homo sapiens, UniProt O75582); assay: kinase panel activity, MSK1(h); settings: compound at 20 μM; vs reference with no compound
[24] = target: MSK2(h) (Homo sapiens, UniProt O75676); assay: kinase panel activity, MSK2(h); settings: compound at 20 μM; vs reference with no compound
[25] = target: NEK7(h) (Homo sapiens, UniProt Q8TDX7); assay: kinase panel activity, NEK7(h); settings: compound at 20 μM; vs reference with no compound
[26] = target: NLK(h) (Homo sapiens, UniProt Q9UBE8); assay: kinase panel activity, NLK(h); settings: compound at 20 μM; vs reference with no compound
[27] = target: p70S6K(h) (Homo sapiens, UniProt P23443); assay: kinase panel activity, p70S6K(h); settings: compound at 20 μM; vs reference with no compound
[28] = target: PAK4(h) (Homo sapiens, UniProt O96013); assay: kinase panel activity, PAK4(h); settings: compound at 20 μM; vs reference with no compound
[29] = target: PDGFRα(h) (Homo sapiens, UniProt P16234); assay: kinase panel activity, PDGFRα(h); settings: compound at 20 μM; vs reference with no compound
[30] = target: Pim-1(h) (Homo sapiens, UniProt P11309); assay: kinase panel activity, Pim-1(h); settings: compound at 20 μM; vs reference with no compound
[31] = target: Pim-2(h) (Homo sapiens, UniProt Q9P1W9); assay: kinase panel activity, Pim-2(h); settings: compound at 20 μM; vs reference with no compound
[32] = target: PKBβ(h) (Homo sapiens, UniProt P31751); assay: kinase panel activity, PKBβ(h)
[33] = target: PKBγ(h) (Homo sapiens, UniProt Q9Y243); assay: kinase panel activity, PKBγ(h)
[34] = target: PKCα(h) (Homo sapiens, UniProt P17252); assay: kinase panel activity, PKCα(h); settings: compound at 20 μM; vs reference with no compound
[35] = target: Rsk1(h) (Homo sapiens, UniProt Q15418); assay: kinase panel activity, Rsk1(h); settings: compound at 20 μM; vs reference with no compound
[36] = target: SAPK2a(h) (Homo sapiens, UniProt Q16539); assay: kinase panel activity, SAPK2a(h); settings: compound at 20 μM; vs reference with no compound
[37] = target: SAPK2a(T106M)(h) (Homo sapiens, UniProt Q16539, T106M); assay: kinase panel activity, SAPK2a(T106M)(h); settings: compound at 20 μM; vs reference with no compound
[38] = target: SIK(h) (Homo sapiens, UniProt P57059); assay: kinase panel activity, SIK(h); settings: compound at 20 μM; vs reference with no compound
[39] = target: TAK1(h) (Homo sapiens, UniProt O43318); assay: kinase panel activity, TAK1(h); settings: compound at 20 μM; vs reference with no compound
[40] = target: Tie2(h) (Homo sapiens, UniProt Q02763); assay: kinase panel activity, Tie2(h); settings: compound at 20 μM; vs reference with no compound
[41] = compound at 20 μM, vs reference with no compound

Sequence of CDK5/p35(h) (Q00535 whole entry): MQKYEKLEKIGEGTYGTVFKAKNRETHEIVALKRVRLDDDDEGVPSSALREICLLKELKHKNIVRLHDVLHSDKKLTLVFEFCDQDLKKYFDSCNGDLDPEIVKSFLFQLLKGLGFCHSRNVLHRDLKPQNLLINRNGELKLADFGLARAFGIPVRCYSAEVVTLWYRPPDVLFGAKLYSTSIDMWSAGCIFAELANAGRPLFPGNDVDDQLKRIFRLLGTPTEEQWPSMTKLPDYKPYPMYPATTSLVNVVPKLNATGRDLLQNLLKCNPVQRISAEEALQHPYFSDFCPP
Sequence of CDK5/p35(h) (Q15078 whole entry partner): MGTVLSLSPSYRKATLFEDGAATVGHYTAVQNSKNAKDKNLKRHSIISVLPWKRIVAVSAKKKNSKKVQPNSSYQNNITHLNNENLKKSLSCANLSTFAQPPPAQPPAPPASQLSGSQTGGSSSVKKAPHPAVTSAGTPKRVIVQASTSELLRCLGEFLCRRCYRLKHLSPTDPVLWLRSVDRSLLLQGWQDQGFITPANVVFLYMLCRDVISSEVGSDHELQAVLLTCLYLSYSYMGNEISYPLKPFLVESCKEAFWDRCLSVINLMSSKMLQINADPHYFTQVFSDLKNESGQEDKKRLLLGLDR
Sequence of MAPK1(h) (P27361 whole entry): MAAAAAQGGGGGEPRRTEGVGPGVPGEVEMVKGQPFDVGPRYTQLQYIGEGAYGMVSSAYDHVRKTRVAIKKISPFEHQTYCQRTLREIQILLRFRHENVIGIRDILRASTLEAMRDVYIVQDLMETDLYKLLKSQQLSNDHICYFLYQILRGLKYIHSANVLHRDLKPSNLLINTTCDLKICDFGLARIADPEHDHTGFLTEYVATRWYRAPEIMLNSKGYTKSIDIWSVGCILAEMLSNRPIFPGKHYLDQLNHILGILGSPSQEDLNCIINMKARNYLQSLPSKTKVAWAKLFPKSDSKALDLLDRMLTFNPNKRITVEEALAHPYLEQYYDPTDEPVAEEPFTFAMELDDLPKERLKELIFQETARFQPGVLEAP
Sequence of Met(h) (P08581 25-1390): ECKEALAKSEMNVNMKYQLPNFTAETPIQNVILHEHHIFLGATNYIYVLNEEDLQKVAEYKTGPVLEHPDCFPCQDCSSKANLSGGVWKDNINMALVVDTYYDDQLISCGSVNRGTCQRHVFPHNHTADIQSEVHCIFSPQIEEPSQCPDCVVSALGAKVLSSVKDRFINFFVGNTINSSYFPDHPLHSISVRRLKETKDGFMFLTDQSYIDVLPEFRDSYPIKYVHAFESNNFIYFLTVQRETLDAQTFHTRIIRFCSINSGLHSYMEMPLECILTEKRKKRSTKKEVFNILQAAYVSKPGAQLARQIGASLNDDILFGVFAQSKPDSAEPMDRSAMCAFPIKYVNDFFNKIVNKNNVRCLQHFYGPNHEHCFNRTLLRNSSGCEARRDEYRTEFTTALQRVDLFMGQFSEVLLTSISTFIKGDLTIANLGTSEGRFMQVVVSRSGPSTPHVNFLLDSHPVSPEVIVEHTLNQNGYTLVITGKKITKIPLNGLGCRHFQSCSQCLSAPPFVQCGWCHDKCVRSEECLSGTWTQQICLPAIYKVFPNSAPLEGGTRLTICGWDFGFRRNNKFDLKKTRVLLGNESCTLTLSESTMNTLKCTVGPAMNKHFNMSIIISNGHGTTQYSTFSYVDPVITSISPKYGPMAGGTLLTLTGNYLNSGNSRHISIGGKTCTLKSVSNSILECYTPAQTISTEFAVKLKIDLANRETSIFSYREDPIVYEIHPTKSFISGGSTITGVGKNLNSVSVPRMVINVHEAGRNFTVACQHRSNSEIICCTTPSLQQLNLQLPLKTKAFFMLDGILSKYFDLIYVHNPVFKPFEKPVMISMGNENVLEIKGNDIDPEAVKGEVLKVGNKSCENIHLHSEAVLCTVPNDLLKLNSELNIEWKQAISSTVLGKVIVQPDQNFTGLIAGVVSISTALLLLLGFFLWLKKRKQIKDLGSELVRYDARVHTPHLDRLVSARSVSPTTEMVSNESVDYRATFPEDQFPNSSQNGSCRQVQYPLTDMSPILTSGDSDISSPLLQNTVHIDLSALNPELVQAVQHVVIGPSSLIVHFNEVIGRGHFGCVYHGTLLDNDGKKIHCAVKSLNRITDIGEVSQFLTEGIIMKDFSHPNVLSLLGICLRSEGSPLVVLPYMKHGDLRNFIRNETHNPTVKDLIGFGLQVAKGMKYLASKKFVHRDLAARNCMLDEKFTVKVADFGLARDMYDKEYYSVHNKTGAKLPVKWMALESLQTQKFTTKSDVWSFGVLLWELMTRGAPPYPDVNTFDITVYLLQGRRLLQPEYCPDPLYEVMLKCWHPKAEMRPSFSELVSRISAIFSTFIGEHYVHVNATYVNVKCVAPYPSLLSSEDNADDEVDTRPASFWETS
Sequence of MAPK2(h) (P28482 whole entry): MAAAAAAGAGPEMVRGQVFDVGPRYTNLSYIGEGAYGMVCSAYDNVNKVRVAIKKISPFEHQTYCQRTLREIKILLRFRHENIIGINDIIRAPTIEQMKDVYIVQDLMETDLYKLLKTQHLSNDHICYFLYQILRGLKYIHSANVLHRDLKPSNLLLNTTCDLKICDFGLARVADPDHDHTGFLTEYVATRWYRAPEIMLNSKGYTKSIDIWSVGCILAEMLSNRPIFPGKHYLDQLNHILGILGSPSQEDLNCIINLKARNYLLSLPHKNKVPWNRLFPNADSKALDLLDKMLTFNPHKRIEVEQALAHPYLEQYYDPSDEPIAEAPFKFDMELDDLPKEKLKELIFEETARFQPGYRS
Sequence of JNK1α1(h) (P45983 1-384 isoform P45983-2): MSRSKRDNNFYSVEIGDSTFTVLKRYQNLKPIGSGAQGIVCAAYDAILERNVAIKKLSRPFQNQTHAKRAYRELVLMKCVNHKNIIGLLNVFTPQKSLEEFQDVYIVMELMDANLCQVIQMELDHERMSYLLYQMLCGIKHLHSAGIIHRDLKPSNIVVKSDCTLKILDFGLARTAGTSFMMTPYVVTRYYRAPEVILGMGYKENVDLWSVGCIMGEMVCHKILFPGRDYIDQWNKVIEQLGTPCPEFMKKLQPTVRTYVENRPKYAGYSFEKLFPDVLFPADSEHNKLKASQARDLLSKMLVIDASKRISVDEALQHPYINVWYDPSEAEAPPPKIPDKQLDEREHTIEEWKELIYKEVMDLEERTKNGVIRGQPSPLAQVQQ
Sequence of DAPK1(h) (P53355 whole entry): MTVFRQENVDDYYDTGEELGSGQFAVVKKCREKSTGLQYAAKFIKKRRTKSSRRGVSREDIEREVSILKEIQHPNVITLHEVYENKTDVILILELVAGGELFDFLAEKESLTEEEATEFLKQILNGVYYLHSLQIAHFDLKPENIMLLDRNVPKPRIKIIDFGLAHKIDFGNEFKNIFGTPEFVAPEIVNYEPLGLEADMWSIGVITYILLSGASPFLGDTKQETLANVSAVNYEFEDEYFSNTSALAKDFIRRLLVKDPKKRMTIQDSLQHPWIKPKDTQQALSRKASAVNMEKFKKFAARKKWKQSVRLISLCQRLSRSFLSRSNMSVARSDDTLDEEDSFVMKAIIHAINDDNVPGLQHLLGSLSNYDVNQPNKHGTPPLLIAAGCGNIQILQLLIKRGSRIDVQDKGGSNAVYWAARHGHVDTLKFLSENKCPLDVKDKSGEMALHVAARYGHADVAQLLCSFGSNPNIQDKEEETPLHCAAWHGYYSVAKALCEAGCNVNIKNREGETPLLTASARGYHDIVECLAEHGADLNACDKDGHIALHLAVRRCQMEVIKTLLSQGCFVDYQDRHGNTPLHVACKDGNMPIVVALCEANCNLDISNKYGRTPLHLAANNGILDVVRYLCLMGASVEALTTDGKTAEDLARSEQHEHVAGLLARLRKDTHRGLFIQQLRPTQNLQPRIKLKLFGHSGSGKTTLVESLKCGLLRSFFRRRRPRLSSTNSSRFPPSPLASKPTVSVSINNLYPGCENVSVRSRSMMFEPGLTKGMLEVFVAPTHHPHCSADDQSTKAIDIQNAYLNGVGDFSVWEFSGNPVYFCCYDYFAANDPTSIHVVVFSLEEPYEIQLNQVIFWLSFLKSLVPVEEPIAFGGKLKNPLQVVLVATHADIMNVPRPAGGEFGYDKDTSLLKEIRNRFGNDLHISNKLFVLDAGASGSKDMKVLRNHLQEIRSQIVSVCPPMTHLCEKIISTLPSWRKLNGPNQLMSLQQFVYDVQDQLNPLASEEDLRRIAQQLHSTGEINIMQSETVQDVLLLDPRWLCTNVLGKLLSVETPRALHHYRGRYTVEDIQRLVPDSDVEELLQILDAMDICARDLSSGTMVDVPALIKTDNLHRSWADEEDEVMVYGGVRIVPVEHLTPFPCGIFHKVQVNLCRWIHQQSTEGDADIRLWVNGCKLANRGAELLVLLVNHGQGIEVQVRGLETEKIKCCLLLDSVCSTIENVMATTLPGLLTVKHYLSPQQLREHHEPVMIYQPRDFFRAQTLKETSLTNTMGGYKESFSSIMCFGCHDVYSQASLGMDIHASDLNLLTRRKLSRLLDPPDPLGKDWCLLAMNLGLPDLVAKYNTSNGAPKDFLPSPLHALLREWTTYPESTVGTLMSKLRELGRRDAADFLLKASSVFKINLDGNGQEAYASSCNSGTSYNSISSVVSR
Sequence of p70S6K(h) (P23443 whole entry): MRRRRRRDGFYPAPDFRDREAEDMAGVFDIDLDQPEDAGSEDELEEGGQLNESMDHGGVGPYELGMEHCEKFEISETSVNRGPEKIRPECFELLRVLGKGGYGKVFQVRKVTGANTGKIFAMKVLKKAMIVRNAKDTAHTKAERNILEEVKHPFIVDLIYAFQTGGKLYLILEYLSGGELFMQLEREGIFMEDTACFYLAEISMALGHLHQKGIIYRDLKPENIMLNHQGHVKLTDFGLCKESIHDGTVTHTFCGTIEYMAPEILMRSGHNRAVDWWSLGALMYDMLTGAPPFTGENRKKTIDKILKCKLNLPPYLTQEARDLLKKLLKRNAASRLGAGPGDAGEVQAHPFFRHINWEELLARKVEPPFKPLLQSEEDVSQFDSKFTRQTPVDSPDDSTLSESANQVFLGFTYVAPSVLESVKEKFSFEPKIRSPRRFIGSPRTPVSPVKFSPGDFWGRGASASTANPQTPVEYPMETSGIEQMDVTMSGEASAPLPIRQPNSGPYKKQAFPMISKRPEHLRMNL

Compound | percent activity of ALK4(h) [1] | percent activity of Aurora-A(h) [2] | percent activity of CDK1/cyclinB(h) [3] | percent activity of CDK2/cyclinE(h) [4] | percent activity of CDK3/cyclinE(h) [5] | percent activity of CDK5/p35(h) [6] | percent activity of CDK6/cyclinD3(h) [7] | percent activity of CHK2(h) [8] | percent activity of CSK(h) [9] | percent activity of cSRC(h) [10] | percent activity of DAPK1(h) [11] | percent activity of DAPK2(h) [12] | percent activity of EphB2(h) [13] | percent activity of GSK3β(h) [14] | percent activity of IKKβ(h) [15] | percent activity of JNK1α1(h) [16] | percent activity of JNK2α2(h) [17] | percent activity of LIMK1(h) [18] | percent activity of MAPK1(h) [19] | percent activity of MAPK2(h) [20] | further results
O=C(O)[C@H]1O[C@@H](Oc2ccc(/C=C/c3cc(O)cc(O)c3)cc2)[C@H](O)[C@@H](O)[C@@H]1O [Res 4′-Gluc, resveratrol-4-glucuronide] | 104% | 33% | 104% | 106% | 101% | 104% | 95% | 95% | 100% | 54% | 107% | 92% | 109% | 88% | 98% | 91% | 123% | 91% | 106% | 105% | percent activity of MEK1(h) [21]: 120%; percent activity of Met(h) [22]: 122%; percent activity of MSK1(h) [23]: 110%; percent activity of MSK2(h) [24]: 94%; percent activity of NEK7(h) [25]: 112%; percent activity of NLK(h) [26]: 99%; percent activity of p70S6K(h) [27]: 54%; percent activity of PAK4(h) [28]: 107%; percent activity of PDGFRα(h) [29]: 114%; percent activity of Pim-1(h) [30]: 31%; percent activity of Pim-2(h) [31]: 76%; percent activity of PKBβ(h) [32, 41]: 94%; percent activity of PKBγ(h) [33, 41]: 101%; percent activity of PKCα(h) [34]: 100%; percent activity of Rsk1(h) [35]: 104%; percent activity of SAPK2a(h) [36]: 107%; percent activity of SAPK2a(T106M)(h) [37]: 109%; percent activity of SIK(h) [38]: 74%; percent activity of TAK1(h) [39]: 113%; percent activity of Tie2(h) [40]: 76%
Oc1ccc(C=Cc2cc(O)cc(O)c2)cc1 [resveratrol, 3,5,4′-trihydroxystilbene] | 110% | 65% | 67% | 80% | 75% | 77% | 55% | 59% | 94% | 61% | 71% | 67% | 113% | 92% | 116% | 89% | 110% | 84% | 94% | 101% | percent activity of MEK1(h) [21]: 110%; percent activity of Met(h) [22]: 114%; percent activity of MSK1(h) [23]: 58%; percent activity of MSK2(h) [24]: 60%; percent activity of NEK7(h) [25]: 116%; percent activity of NLK(h) [26]: 30%; percent activity of p70S6K(h) [27]: 21%; percent activity of PAK4(h) [28]: 103%; percent activity of PDGFRα(h) [29]: 114%; percent activity of Pim-1(h) [30]: 6%; percent activity of Pim-2(h) [31]: 14%; activity at 20 µM ([32]; read-out: percent activity of PKBβ(h)): 105%; activity at 20 µM ([33]; read-out: percent activity of PKBγ(h)): 89%; percent activity of PKCα(h) [34]: 114%; percent activity of Rsk1(h) [35]: 70%; percent activity of SAPK2a(h) [36]: 100%; percent activity of SAPK2a(T106M)(h) [37]: 102%; percent activity of SIK(h) [38]: 76%; percent activity of TAK1(h) [39]: 105%; percent activity of Tie2(h) [40]: 94%
